Measurements: patent US20240025875A1, “A COMPOUND AS A THYROID HORMONE BETA RECEPTOR AGONIST AND USE THEREOF” (SUNSHINE LAKE PHARMA CO., LTD., priority 2020, published 2024)

Experiments:
[1] = molecular target: T1, TRα (Homo sapiens, UniProt P10827); test: LanthaScreen TR-FRET Thyroid Receptor alfa Coactivator Assay (in vitro binding activity); details: TR alfa-LBD
T1 construct: 5 μL of 4×TR beta/alfa-LBD; purchased Invitrogen PV4687
Procedure: (§1) 2. Detection of the Binding Activity of the Compound of the Present Invention to TRα or TRβ In Vitro
(§2) Test Materials • LanthaScreen TR-FRET Thyroid Receptor beta Coactivator Assay kit was purchased from Invitrogen, Cat. No. PV4686; • LanthaScreen TR-FRET Thyroid Receptor alfa Coactivator Assay kit was purchased from Invitrogen, Cat. No. PV4687.
(§3) The method was experimented with LanthaScreen TR-FRET Thyroid Receptor beta/alfa Coactivator Assay kit. The test compound was dissolved in DMSO and diluted 3 times to a total of 10 concentrations, and then diluted with TR-FRET Coregulator Buffer C in the kit to form a solution containing 2% DMSO, 10 μL of the solution containing 2% DMSO was taken into a 384-well plate, then 5 μL of 4×TR beta/alfa-LBD, 5 μL of a mixture containing 0.4 μM fluorescein-SRC2-2 and 8 nM Tb anti-GST antibody were added into each well, mixed thoroughly, and incubated at room temperature for 1 h in the dark. After 1 h, BMG LABTECH's PHERAstar FSX microplate reader was used to read the fluorescence value (RFU) at […]. The TR-FRET ratio was calculated by dividing the emission signal at 520 nm by the emission signal at 495 nm. Graph Pad Prism 5 software was used to draw the curve and calculate the EC50 value. The in vitro binding activity test results of some of the compounds of the examples of the present invention are shown in Table 1 below.

[2] = molecular target: T2, TRβ (Homo sapiens, UniProt P10828); test: LanthaScreen TR-FRET Thyroid Receptor beta Coactivator Assay (in vitro binding activity); details: TR beta-LBD
T2 construct: 5 μL of 4×TR beta/alfa-LBD; purchased Invitrogen PV4686
T2 sequence (P10828 217-461 limits assumed): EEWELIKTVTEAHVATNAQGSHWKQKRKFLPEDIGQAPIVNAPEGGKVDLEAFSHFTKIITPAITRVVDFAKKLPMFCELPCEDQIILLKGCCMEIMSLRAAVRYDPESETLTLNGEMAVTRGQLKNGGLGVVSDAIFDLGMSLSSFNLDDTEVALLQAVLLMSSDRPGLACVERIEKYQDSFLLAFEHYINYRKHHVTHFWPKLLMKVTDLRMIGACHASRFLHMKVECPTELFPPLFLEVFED
Procedure: as §1, §2, §3

[3] = Pharmacokinetic determination in SD rats (i.v. and i.g.); format: in vivo; details: for AUC(0-inf) / AUC(0-t) / Cmax / clearance / half-life / Vd: male, Sprague-Dawley (SD), rat, plasma; for Vd: read-out: VSS
Text: Test purposes: The following method was used to determine the pharmacokinetics of the compound of the present invention.
Test Materials: • Experimental reagents and test samples used: Propranolol (internal standard), methanol, ammonium acetate, K2EDTA (potassium ethylenediaminetetraacetic acid), formic acid, acetonitrile MTBE (methyl tert-butyl ether). KolliphorHS15 (macrogol 12 hydroxystearate), DMSO (dimethyl sulfoxide) are commercially available • SD rats: male, 180-220 g, 7-8 weeks old, purchased from Human Slack Experimental Animal Co., Ltd.
Each test sample prepared was completely dissolved in a mixture of 5% DMSO+5% KolliphorHS 15+90% Saline according solubility property thereof.
Samples were processed by liquid-liquid extraction, chromatographically separated, quantitatively analyzed by multiple reaction ion monitoring (MRM) on a triple quadrupole tandem mass spectrometer, and the concentration of the results was calculated by instrument quantitative software.
30 μL of plasma sample was precisely pipetted, added with 250 μL of internal standard, and vortexed to mix thoroughly. Plasma samples was extracted once with 1 mL of MTBE, centrifuged at 13,000 rpm for 2 min at 4° C. 800 μL of the supernatant was sucked out, evaporated to dryness in a 96-well nitrogen blower, and the residue was reconstituted with 150 μL of methanol/water (v/v=50/50), vortexed to mix, and injected with an injection volume of 8 μL.
LC/MS/MS method was used to determine the content of the test compound in rat plasma after administration of different compounds.
Pharmacokinetic parameters were calculated using a noncompartmental method by WinNonLin 6.1 software.

T1 sequence (P10827 163-410 isoform P10827-2 limits assumed, other chains not shown): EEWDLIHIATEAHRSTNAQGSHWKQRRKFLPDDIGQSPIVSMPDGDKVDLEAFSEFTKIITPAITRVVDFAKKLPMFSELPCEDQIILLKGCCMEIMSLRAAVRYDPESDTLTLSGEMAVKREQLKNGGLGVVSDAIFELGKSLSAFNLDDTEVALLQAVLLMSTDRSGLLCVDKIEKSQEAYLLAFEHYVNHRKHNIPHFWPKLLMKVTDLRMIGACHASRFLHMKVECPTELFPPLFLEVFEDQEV

Compound	EC50 [1] [µM]	EC50 [2] [µM]	F ([3]; ig, 5 mg/kg) [%]	AUC(0-inf) ([3]; iv, 1 mg/kg) [ng·h/mL]	AUC(0-t) ([3]; iv, 1 mg/kg) [ng·h/mL]	Cmax ([3]; iv, 1 mg/kg) [ng/mL]	clearance ([3]; iv, 1 mg/kg) [mL/min/kg]	half-life ([3]; iv, 1 mg/kg) [h]	Vd ([3]; iv, 1 mg/kg) [L/kg]	AUC(0-inf) ([3]; po, ig, 5 mg/kg) [ng·h/mL]	AUC(0-t) ([3]; po, ig, 5 mg/kg) [ng·h/mL]	Cmax ([3]; po, ig, 5 mg/kg) [ng/mL]	half-life ([3]; po, ig, 5 mg/kg) [h]
O=C1c2ccc(Oc3c(Cl)cc(-n4ncc(=O)[nH]c4=O)cc3Cl)cc2CCN1Cc1ccc(C(F)(F)F)cc1 [Example 29, 2-(3,5-dichloro-4-((1-oxo-2-(4-(trifluoromethyl)benzyl)-1,2,3,4-tetrahydroisoquinolin-6-yl)oxy)phenyl)-1,2,4-triazine-3,5(2H,4H)-dione]	> 100	0.091	66.2	56000	48700	4270	0.297	8.47	0.194	236000	159000	10300	14.1
O=C1c2ccc(Oc3c(Cl)cc(-n4ncc(=O)[nH]c4=O)cc3Cl)cc2CCN1c1ccc(F)cc1 [Example 28]	> 100	0.017	97.6	9640	8730	8400	1.73	2.91	0.246	47000	47000	15500	2.29
O=C1c2ccc(Oc3c(Cl)cc(-n4ncc(=O)[nH]c4=O)cc3Cl)cc2CCN1Cc1cccc(C(F)(F)F)c1 [Example 34, 2-(3,5-dichloro-4-((2-(3-(trifluoromethyl)benzyl)-1-oxo-1,2,3,4-tetrahydroisoquinolin-6-yl)oxy)phenyl)-1,2,4-triazine-3,5(2H,4H)-dione]	> 100	0.021	111	22400	18800	3020	0.744	9.87	0.531	124000	110000	8460	7.67
O=C1c2ccc(Oc3c(Cl)cc(-n4ncc(=O)[nH]c4=O)cc3Cl)cc2CCN1Cc1ccncc1 [Example 24, 2-(3,5-dichloro-4-((1-oxo-2-(pyridin-4-ylmethyl)-1,2,3,4-tetrahydroisoquinolin-6-yl)oxy)phenyl)-1,2,4-triazine-3,5(2H,4H)-dione]	> 100	0.075	117.7	3790	3720	4020	4.39	1.16	0.337	223000	21900	7790	2.65
O=C1c2ccc(Oc3c(Cl)cc(-n4ncc(=O)[nH]c4=O)cc3Cl)cc2CCN1Cc1ccccn1 [Example 46, 2-(3,5-dichloro-4-((1-oxo-2-(pyridin-2-ylmethyl)-1,2,3,4-tetrahydroisoquinolin-6-yl)oxy)phenyl)-1,2,4-triazine-3,5(2H,4H)-dione]	> 100	0.035	126.5	10000	9810	4160	1.66	4.24	0.424	633000	61900	6410	5.93
O=C1c2ccc(Oc3c(Cl)cc(-n4ncc(=O)[nH]c4=O)cc3Cl)cc2CCN1Cc1cccnc1 [Example 45, 2-(3,5-dichloro-4-((1-oxo-2-(pyridin-3-ylmethyl)-1,2,3,4-tetrahydroisoquinolin-6-yl)oxy)phenyl)-1,2,4-triazine-3,5(2H,4H)-dione]	> 100	0.061	163.9	2510	2460	1780	6.65	1.15	0.57	20600	20300	5320	4.14
Cc1ccc(CN2CCc3cc(Oc4c(Cl)cc(-n5ncc(=O)[nH]c5=O)cc4Cl)ccc3C2=O)cc1 [Example 21, 2-(3,5-dichloro-4-((2-(4-methylbenzyl)-1-oxo-1,2,3,4-tetrahydroisoquinolin-6-yl)oxy)phenyl)-1,2,4-triazine-3,5(2H,4H)-dione]	> 100	0.019	81.9	1020	1020	2760	16.3	1.02	0.308	4180	4160	4730	1.44
O=C1c2ccc(Oc3c(Cl)cc(-n4ncc(=O)[nH]c4=O)cc3Cl)cc2CCN1c1ccccc1F [Example 44, 2-(3,5-dichloro-4-((2-(2-fluorophenyl)-1-oxo-1,2,3,4-tetrahydroisoquinolin-6-yl)oxy)phenyl)-1,2,4-triazine-3,5(2H,4H)-dione]	> 100	0.0097	133.3	2150	2110	5430	7.74	2.11	0.4	14300	13900	9030	1.64
O=C1c2ccc(Oc3c(Cl)cc(-n4ncc(=O)[nH]c4=O)cc3Cl)cc2CCN1c1cccc(F)c1 [Example 42, 2-(3,5-dichloro-4-((2-(3-fluorophenyl)-1-oxo-1,2,3,4-tetrahydroisoquinolin-6-yl)oxy)phenyl)-1,2,4-triazine-3,5(2H,4H)-dione]	> 100	0.016	134.8	1960	1860	4340	8.49	2.97	0.658	13200	12700	7700	2.53
O=C1c2ccc(Oc3c(Cl)cc(-n4ncc(=O)[nH]c4=O)cc3Cl)cc2CCN1Cc1ccc(F)cc1 [Example 20, 2-(3,5-dichloro-4-((2-(4-fluorobenzyl)-1-oxo-1,2,3,4-tetrahydroisoquinolin-6-yl)oxy)phenyl)-1,2,4-triazine-3,5(2H,4H)-dione]	> 100	0.012	115.1	16400	16300	3990	1.01	3.16	0.251	94400	93700	10400	3.57
N#Cc1nn(-c2cc(Cl)c(Oc3ccc4c(c3)CCNC4=O)c(Cl)c2)c(=O)[nH]c1=O [Example 1, 2-(3,5-dichloro-4-((1-oxo-1,2,3,4-tetrahydroisoquinolin-6-yl)oxy)phenyl)-3,5-dioxo-2,3,4,5-tetrahydro-1,2,4-triazine-6-carbonitrile]	> 100	0.26											
N#Cc1nn(-c2cc(Cl)c(Oc3ccc4c(c3)CCN(Cc3cc(F)cc(F)c3)C4=O)c(Cl)c2)c(=O)[nH]c1=O [Example 32d, 2-(3,5-Dichloro-4-((2-(3,5-difluorobenzyl)-1-oxo-1,2,3,4-tetrahydroisoquinolin-6-yl)oxy)phenyl)-3,5-dioxo-2,3,4,5-tetrahydro-1,2,4-triazine-6-carbonitrile]	> 100	0.054											
